Measured values published in publication PMC11724075, “Small-molecule-induced ERBB4 activation to treat heart failure” (Nature Communications, 2025).
pEC50: −log10 of the molar value. Values joined by “and” are separate entries in the source; they are usually repeats but may differ in a detail not shown here. Equal entries are not always repeated.

Experiments:
iAMs = assay: H2O2-induced cell death assay in iAMs (Toxilight), also with LY294002
Protocol: Subsequently, H2O2 (100 µM; Merck, H1009) was added and the cells were incubated for 4 h at 37 °C. All wells contained DMSO at a final concentration of 0.9%. […] After incubation at RT for 5 min, luminescence was measured using the Luminoskan Ascent.

ERBB4/ERBB4 = target: T1, ERBB4/ERBB4 (Homo sapiens, UniProt Q15303); assay: PathHunter U2OS ERBB4/ERBB4 dimerization assay, 96-well dose-response; type: cell-based; conditions: for ERBB4/ERBB4 dimerization signal: relative to signal with 0.1 µM NRG1, single biological replicates; for pEC50: Fig. 1 panels b, f-l
T1 construct: host or cells: U2OS (osteosarcoma cells), PathHunter engineered line
Protocol: PathHunter U2OS ERBB4/ERBB4 (osteosarcoma cells; Eurofins, 93-0961C3), U2OS ERBB2/ERBB4 (osteosarcoma cells; Eurofins, 493-0960C3), ERBB2/ERBB3 (osteosarcoma cells; Eurofins, 93-1042C3) and ERBB1/ERBB1 (osteosarcoma cells; Eurofins, 93-0989C3) dimerization cell lines were cultured according to the manufacturer’s instructions. Briefly, cells were cultured in Cell Culture Reagent 103 (Eurofins, 92-3103 G) supplemented with 250 µg/mL Hygromycin B (Eurofins, 92-0029) and 500 µg/mL G418 (Eurofins, 92-0030), and were maintained at 37 °C in humidified atmosphere of 5% CO2. HCFs (Innoprot, P10454) were cultured in fibroblast medium (Innoprot, P60108) supplemented with 10% (v/v) fetal bovine serum (FBS, Innoprot), 10% (v/v) fibroblast growth supplement (Innoprot), and 1% (v/v) penicillin/streptomycin solution (Innoprot). iAMs[33] (kindly provided by LUMC) were cultured in Advanced DMEM F-12 (Thermo Fisher Scientific, 12634028) supplemented with 2% (v/v) heat-inactivated FBS (Thermo Fisher Scientific, 10270106), 1% (v/v) penicillin/streptomycin (10,000 units/mL and 10 mg/mL respectively, Thermo Fisher Scientific, 15140122), 1× GlutaMAX (Thermo Fisher Scientific, 35050061), and 100 ng/mL doxycycline (Tocris, 4090) for proliferation. To induce differentiation, iAMs were transferred to medium without doxycycline.
U2OS ERBB4/ERBB4 dimerization cells were seeded at a density of 5 × 10^4 cells/well in 100 µL Cell Plating 0 Reagent, in white 96-well plates (PerkinElmer, 6005680) and incubated for 24 h at 37 °C, 5% CO2. […] Next, 110 µL PathHunter Flash Detection Reagent was added to each well and incubated at RT for 1 h after which the luminescence signal was measured using the Luminoskan Ascent (Thermo Fisher Scientific). […] The same experimental set-up was used for the U2OS ERBB2/ERBB4, U2OS ERBB2/ERBB3 and U2OS ERBB1/ERBB1 dimerization cell lines.
Category Parameter Description
Assay Type of assay PathHunter Dimerization assays provide a robust, highly sensitive and easy-to-use cell-based functional assay to study various protein activities in a cell. The assay s use
Enzyme Fragment Complementation technology, where the b-galactosidase (b-gal) enzyme is split into two fragments, ProLink and Enzyme Acceptor. Independently these fragments have no b-gal activity. However, when forced to complement through protein-protein interactions, they form an active b-gal enzyme. The PathHunter Dimerization assay detects ligand induced dimerization of two subunits of a receptor-dimer pair. The cells have been engineered to co-express one receptor subunit (ERBB4) fused to Enzyme
Donor, and a second dimer partner (ERBB4) fused to Enzyme Acceptor. Binding of an agonist to one receptor subunit induces it to interact with its dimer partner, forcing complementation of the two enzyme […]
functional enzyme that hydrolyzes a substrate to generate a chemiluminescent signal.
Target ErbB4 receptor (RTK receptor)
Primary measurement Detection of chemiluminescent signal, induced by small-molecule ErbB4 agonists
Key reagents PathHunter Dimerization ErbB4/ErbB4 Cell
Line (93-0961C3) - PathHunter Flash
Detection Kit (03 -0247) - AssayComplete Cell
AssayComplete Cell Detachment Reagent
(92-0009) - AssayComplete Thawing Reagent
T3 (92-4103TR) - AssayComplete Freezing
Assay protocol https://www.discoverx.com/catalog/pathhun

T1 sequence (Q15303 26-1308): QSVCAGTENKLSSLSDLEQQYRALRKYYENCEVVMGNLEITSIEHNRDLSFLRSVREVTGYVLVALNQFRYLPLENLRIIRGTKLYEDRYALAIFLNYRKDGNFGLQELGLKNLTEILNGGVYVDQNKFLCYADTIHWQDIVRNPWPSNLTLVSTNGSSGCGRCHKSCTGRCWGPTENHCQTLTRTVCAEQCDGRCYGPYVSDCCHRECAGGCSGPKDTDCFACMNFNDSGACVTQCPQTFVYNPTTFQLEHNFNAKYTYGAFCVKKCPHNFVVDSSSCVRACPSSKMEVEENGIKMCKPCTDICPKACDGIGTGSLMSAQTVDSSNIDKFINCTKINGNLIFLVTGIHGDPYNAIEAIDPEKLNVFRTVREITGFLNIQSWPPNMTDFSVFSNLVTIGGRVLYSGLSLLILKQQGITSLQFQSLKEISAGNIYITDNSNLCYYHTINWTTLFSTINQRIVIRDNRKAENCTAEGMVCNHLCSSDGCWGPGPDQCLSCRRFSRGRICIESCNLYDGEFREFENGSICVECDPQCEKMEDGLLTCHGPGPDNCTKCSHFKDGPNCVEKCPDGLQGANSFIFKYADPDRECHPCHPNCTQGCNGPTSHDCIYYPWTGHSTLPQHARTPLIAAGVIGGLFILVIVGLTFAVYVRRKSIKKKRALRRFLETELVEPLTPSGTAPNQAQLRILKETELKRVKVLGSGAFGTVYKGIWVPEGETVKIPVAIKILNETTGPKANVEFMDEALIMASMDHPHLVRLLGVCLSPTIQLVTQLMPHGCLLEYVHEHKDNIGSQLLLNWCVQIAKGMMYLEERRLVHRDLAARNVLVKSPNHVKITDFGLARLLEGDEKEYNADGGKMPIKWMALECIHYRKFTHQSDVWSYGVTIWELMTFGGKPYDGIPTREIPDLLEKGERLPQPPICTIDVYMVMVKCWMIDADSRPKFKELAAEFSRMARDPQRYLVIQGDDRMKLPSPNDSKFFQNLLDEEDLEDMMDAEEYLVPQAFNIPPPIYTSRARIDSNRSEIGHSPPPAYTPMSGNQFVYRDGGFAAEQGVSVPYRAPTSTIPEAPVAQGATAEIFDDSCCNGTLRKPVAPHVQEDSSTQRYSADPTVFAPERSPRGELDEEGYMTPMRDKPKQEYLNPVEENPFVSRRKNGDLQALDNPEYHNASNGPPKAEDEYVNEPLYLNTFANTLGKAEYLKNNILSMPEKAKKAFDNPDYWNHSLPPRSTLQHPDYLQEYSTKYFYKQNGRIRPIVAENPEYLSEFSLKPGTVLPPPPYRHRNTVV
T1 sequence (Q15303 26-1308): as above

Row | SMILES | total cell death of iAMs (iAMs; 100 µM H2O2) | total cell death of iAMs, validation H2O2 (iAMs; H2O2 vs Vehicle, single replicates) | induction of ERBB4 dimerization (in words) (ERBB4/ERBB4) | ERBB4/ERBB4 dimerization signal (ERBB4/ERBB4; 3.125e-8 M) | ERBB4/ERBB4 dimerization signal (ERBB4/ERBB4; 6.25e-8 M) | ERBB4/ERBB4 dimerization signal (ERBB4/ERBB4; 1.25e-7 M) | ERBB4/ERBB4 dimerization signal (ERBB4/ERBB4; 2.5e-7 M) | ERBB4/ERBB4 dimerization signal (ERBB4/ERBB4; 5e-7 M) | ERBB4/ERBB4 dimerization signal (ERBB4/ERBB4; 1e-6 M) | ERBB4/ERBB4 dimerization signal (ERBB4/ERBB4; 2e-6 M) | ERBB4/ERBB4 dimerization signal (ERBB4/ERBB4; 4e-6 M) | ERBB4/ERBB4 dimerization signal (ERBB4/ERBB4; 8e-6 M) | ERBB4/ERBB4 dimerization signal (ERBB4/ERBB4; 1.6e-5 M) | ERBB4/ERBB4 dimerization signal (ERBB4/ERBB4; 3.2e-5 M) | pEC50 (ERBB4/ERBB4) | total cell death of iAMs (iAMs; H2O2/Veh + LY294002 (20 µM), single replicates) | total cell death of iAMs (iAMs; Veh + LY294002 (20 µM), no H2O2, single replicates) | effect of LY294002 pretreatment on pro-survival effect of EF-1 (in words) (iAMs; iAMs treated with H2O2)
1 | OO [Compound H2O2, hydrogen peroxide, reference compound] | 62% | 48.19 and 54.13 and 68.52 and 60.96 and 64.53 and 71.34 and 65.79 and 69.72 and 69.16 and 66.75 and 64.62 and 50.66 and 53.52 and 64.15 |  |  |  |  |  |  |  |  |  |  |  |  |  |  |  | 
2 | O=C1NCCCCC1Sc1nc2sc3c(c2c(=O)n1C1CCCC1)CCCC3 (stereo not drawn) [EF-5] |  |  | induced ERBB4 dimerization in a concentration-dependent manner | 0 | 0.55 and -5.82 and -1.2625 and -2.273 | -0.81 and -3.79 and -1.2155 and 0.9982 | 2.18 and -1.68 and -1.408 and 0.7189 | 0.6 and -0.22 and -2.045 and 0.5619 | 1.62 and -1.86 and -1.923 and 1.909 | 0.85 and -0.68 and -0.804 and 3.362 | 1.61 and 5.16 and 4.378 and 4.178 | 4.54 and 3.781 and 4.611 | 16.34 and 17.63 and 4.256 and 4.3885 | 15.88 and 18.62 and 11.2465 and 8.67 | 5.17 |  |  | 
3 | Cc1sc2nc(SC(C)C(=O)Nc3sccc3C(N)=O)n(CC(C)C)c(=O)c2c1C (stereo not drawn) [EF-6] |  |  | induced ERBB4 dimerization in a concentration-dependent manner | 0 | -10.54 and 0.126 and -1.899 | -0.74 and -11.14 and 0.573 and -2.081 | -11.05 and 1.316 and 0.08162 | -1.14 and -8.91 and 2.656 and 0.4928 | -7.05 and 2.748 and 1.042 | -1.29 and -3.55 and 2.61 and 5.158 | 3.35 and 5.191 and 6.31 | 7.22 and 8.65 and 7.634 and 6.661 | 15.88 and 10.304 and 5.283 | 10.39 and 15.72 and 13.149 and 5.2549 | 5.13 |  |  | 
4 | O=c1cc(N2CCOCC2)oc2c(-c3ccccc3)cccc12 [LY294002, reference compound] |  |  |  |  |  |  |  |  |  |  |  |  |  |  |  | 32.812 and 23.1247 and 24.542 and 32.4283 | 4.366 and 3.706 and 3.828 and 4.745 | blocked the pro-survival effect of EF-1
5 | CC(=O)c1ccc(NC(=O)C(C)Sc2nc3ccccc3c(=O)n2C2CCCC2)cc1 (stereo not drawn) [EF-2] |  |  |  | 0 | 2.15 and 4.6 and 0.468 and 1.148 | 3.45 and 2.29 and 0.641 and 1.187 | 4.04 and 4.36 and 1.213 and -1.342 | 1.37 and 3.12 and 2.49 and 0.6545 | 2.5 and 5.02 and 2.238 and 2.209 | 4.33 and 4.8 and 3.759 and 4.682 | 3.95 and 4.91 and 4.578 and 5.322 | 8.72 and 7.12 and 6.167 and 6.988 | 9.4 and 10.69 and 8.539 and 7.868 | 12.78 and 12.75 and 7.517 and 9.504 | 5.48 |  |  | 
6 | CC(Sc1nc2ccccc2c(=O)n1C1CCCC1)c1nc2ccccc2n1C(F)F (stereo not drawn) [EF-7] |  |  | induced ERBB4 dimerization in a concentration-dependent manner | 0 | 1.834 and 3.035 and 0.03 and -1.937 | -0.545 and 2.505 and -0.7885 and 2.028 | 4.185 and 4.81 and -0.3825 and 0.1978 | -2.369 and -1.66 and -2.1805 and 0.9417 | -1.082 and -1.615 and -1.204 and 2.348 | -0.26 and -0.926 and -0.8585 and 4.47 | 0.729 and 3.237 and 0.665 and 4.903 | 3.996 and 7.56 and 2.421 and 5.8011 | 6.204 and 12.704 and 5.9735 and 4.731 | 9.166 and 15.395 and 6.6065 and 4.169 | 5.36 |  |  | 
7 | CC(Sc1nc2ccccc2c(=O)n1C1CCCC1)C(=O)N(C)c1ccccc1 (stereo not drawn) [EF-3] |  |  |  | 0 | -1.21 and 2.4 and -0.0725 | -1.21 and 2.26 and 0.6885 | -1.52 and 3.09 and -0.0015 | -1.8 and 4 and -1.488 | -0.91 and 4.12 and -1.3115 | -2.34 and 4.47 and -0.737 | -2.82 and 3.65 and 0.377 | -2.1 and 3.98 and 3.507 | -0.15 and 7.88 and 11.189 | 10.32 and 12.81 and 17.0765 | 4.80 |  |  | 
8 | Cc1sc2nc(SCC(=O)NC(C)(C#N)C(C)C)n(C3CCCC3)c(=O)c2c1C (stereo not drawn) [EF-8] |  |  | induced ERBB4 dimerization in a concentration-dependent manner | 0 | -2.398 and 2.948 and -2.16 and -2.631 | -3.058 and 0.945 and -1.747 and 1.488 | -2.005 and -2.555 and -0.053 and 1.532 | -2.09 and -2.305 and 2.13 and 0.7408 | -1.274 and -2.984 and 1.804 and 0.1664 | -1.378 and -1.267 and 1.368 and 2.734 | -1.56 and -0.487 and 3.629 and 7.521 | -0.129 and 2.382 and 5.053 and 7.016 | 5.735 and 10.567 and 10.209 and 8.435 | 13.012 and 24.912 and 17.432 | 4.85 |  |  | 
9 | CC(C)n1c(SC(C(=O)NC2CC2)c2ccccc2)nc2sc3c(c2c1=O)CCC3 (stereo not drawn) [EF-4] |  |  |  | 0 | -0.82 and -1.6 and 0.98 and -1.282 and -1.385 | -1.06 and 0.03 and 3.38 and -1.705 and 1.217 | 0.06 and -1.83 and 3.79 and -0.533 and -0.2429 | 0.37 and -1.62 and 3.34 and -1.138 and -0.1012 | -0.43 and -1.64 and 5.89 and 0.03433 and 4.575 | 0.21 and 0.63 and 6.37 and 2.286 and 6.859 | 2.3 and -0.27 and 8.83 and 5.465 and 8.345 | 3.99 and 2.72 and 14.5 and 12.0003 and 11.0326 | 10.7 (2×) and 28.43 and 14.396 and 16.9022 | 14.22 and 10.37 and 32.96 and 14.248 and 12.7415 | 5.10 |  |  | 
